Test results as given in patent publication US20250051319A1 (AUGUSTINE THERAPEUTICS, priority 2021, published 2025).

Target: catalytic domain 2 (CD2) of HDAC6 (Homo sapiens (Human), UniProt Q9UBN7)
Assay: Cellular target engagement assay - NanoBRET
Assay type: cell-based
Settings: NanoLuc-HDAC6(CD2) in HEK293T cells, 2 hours, read-out: IC50 (HDAC6(CD2) interaction)
Method: NanoBRET target engagement was performed against the catalytic domain 2 (CD2) of HDAC6, with minor modifications of kit manufacturer protocol (Promega). Expression of exogenous NanoLuc-HDAC6(CD2) fusion and in HEK293T was achieved following transient transfection with FuGENE HD Transfection Reagent (Promega). The intracellular target engagement assay on HDAC6(CD2) was performed in a 384-well plate format with 8,000 cells per well and a tracer concentration of 0.125 μM or 0.600 μM for HDAC6(CD2). Compounds (dissolved in 100% DMSO) or DMSO (vehicle) were added either manually by diluting them in culture medium at 8× final assay concentration and then adding 5 μL to assay plate or in an automated way by adding […] compound to 5 μL OptiMEM without phenol red (Gibco) using the Echo650 (Labcyte). Tracer solution was added to the cells before seeding 35 μL cell/tracer mixture in the assay plate. The final reaction volume was 40 μL, final DMSO concentration was 1.4% (manual compound addition) or 1.25% (automated compound addition). Assay plates were incubated at 37° C. in a humidified atmosphere containing 5% C02 for 2 hours. The NanoBRET Nano-glo Substrate/Inhibitor was prepared by diluting NanoBRET Nano-Glo Substrate (1:332) and Extracellular Inhibitor (1:1000) in assay medium (Promega). […] BRET ratios were calculated from acceptor/donor signal ratio (mBRET=acceptor/donor*1000) and normalized for each plate. Percentage inhibition was calculated by setting the mBRET obtained with cells without tracer to 100%, while the mBRET obtained with uninhibited cells with tracer was set to 0%. IC50-values were calculated from the percentage inhibition with the log(inhibitor) vs. response—Variable slope (four parameters) nonlinear regression in GraphPad Prism software.

catalytic domain 2 (CD2) of HDAC6, sequence (Q9UBN7 482-800): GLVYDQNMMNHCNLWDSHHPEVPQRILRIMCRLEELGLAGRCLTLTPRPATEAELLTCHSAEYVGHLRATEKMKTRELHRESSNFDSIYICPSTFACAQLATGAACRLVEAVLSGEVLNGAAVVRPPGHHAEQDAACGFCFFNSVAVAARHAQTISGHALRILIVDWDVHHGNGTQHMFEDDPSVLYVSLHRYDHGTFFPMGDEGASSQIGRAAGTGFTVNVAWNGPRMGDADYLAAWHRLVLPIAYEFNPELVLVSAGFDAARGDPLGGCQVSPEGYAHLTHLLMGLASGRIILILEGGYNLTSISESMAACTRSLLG

Row | SMILES | IC50
1 | Cc1nc(SCC(=O)c2ccc(CNC(=O)CO)s2)c2cn(C)nc2n1 [Compound 65, N-((5-(2-((2,6-dimethyl-2H-pyrazolo[3,4-d]pyrimidin-4-yl)thio)acetyl)thiophen-2-yl)methyl)-2-hydroxyacetamide] | 500 to 1000 nM
2 | Cn1cc2c(SCC(=O)c3ccc(CNC(=O)C4CC4(F)F)s3)nc(C(F)(F)F)nc2n1 (stereo not shown) [Compound 111, 2,2-difluoro-N-((5-(2-((2-methyl-6-(trifluoromethyl)-2H-pyrazolo[3,4-d]pyrimidin-4-yl)thio)acetyl)thiophen-2-yl)methyl)cyclopropane-1-carboxamide] | 100 to 500 nM
3 | Cn1ncc2c(SCC(=O)c3ccc(CNS(=O)(=O)c4ccccc4)s3)ncnc21 [Compound 88, N-((5-(2-((1-methyl-1H-pyrazolo[3,4-d]pyrimidin-4-yl)thio)acetyl)thiophen-2-yl)methyl)benzenesulfonamide] | 1000 to 10000 nM
4 | O=C(CSc1nc(C(F)(F)F)nc2ccc(N3CCOCC3)cc12)c1ccc(CNC(=O)C2(O)CC2)s1 [Compound 47, 1-hydroxy-N-((5-(2-((6-morpholino-2-(trifluoromethyl)quinazolin-4-yl)thio)acetyl)thiophen-2-yl)methyl)cyclopropane-1-carboxamide] | 100 to 500 nM
5 | Cn1ncc2c(SCC(=O)c3ccc(C4CCN(C(=O)CO)C4)s3)ncnc21 (stereo not shown) [Compound 86, 2-hydroxy-1-(3-(5-(2-((1-methyl-1H-pyrazolo[3,4-d]pyrimidin-4-yl)thio)acetyl)thiophen-2-yl)157yrrolidine-1-yl)ethan-1-one] | 1000 to 10000 nM
6 | O=C(CSc1nc(C(F)(F)F)nc2ncccc12)c1ccc(CNS(=O)(=O)C2CC2)s1 [Compound 122, N-((5-(2-((2-(trifluoromethyl)pyrido[2,3-d]pyrimidin-4-yl)thio)acetyl)thiophen-2-yl)methyl)cyclopropanesulfonamide] | ≤ 100 nM
7 | O=C(CO)NCc1ccc(C(=O)CSc2nc(C(F)(F)F)nc3cc(C4CC4)nn23)s1 [Compound 112, N-((5-(2-((7-cyclopropyl-2-(trifluoromethyl)pyrazolo[1,5-a][1,3,5]triazin-4-yl)thio)acetyl)thiophen-2-yl)methyl)-2-hydroxyacetamide] | ≤ 100 nM
8 | CC(=O)NCc1ccc(C(=O)CSc2nc(C(F)(F)F)nc3ccccc23)s1 [Compound 99, N-((5-(2-((2-(trifluoromethyl)quinazolin-4-yl)thio)acetyl)thiophen-2-yl)methyl)acetamide] | ≤ 100 nM
9 | CCS(=O)(=O)NCc1ccc(C(=O)CSc2nc(C(F)(F)F)nc3ncccc23)s1 [Compound 127, N-((5-(2-((2-(trifluoromethyl)pyrido[2,3-d]pyrimidin-4-yl)thio)acetyl)thiophen-2-yl)methyl)ethanesulfonamide] | ≤ 100 nM
10 | Cc1nc(SCC(=O)c2ccc(CNC(=O)CO)s2)c2ccccc2n1 [Compound 66, 2-hydroxy-N-((5-(2-((2-methylquinazolin-4-yl)thio)acetyl)thiophen-2-yl)methyl)acetamide] | ≤ 100 nM
11 | Cn1ncc2c(SCC(=O)c3ccc(CNC(=O)C(C)(C)O)s3)ncnc21 [Compound 52, 2-hydroxy-2-methyl-N-((5-(2-((1-methyl-1H-pyrazolo[3,4-d]pyrimidin-4-yl)thio)acetyl)thiophen-2-yl)methyl)propanamide] | 500 to 1000 nM
12 | CC(=O)NCCc1ccc(C(=O)CSc2nc3nc(C)ccc3o2)s1 [Compound 104, N-(2-(5-(2-((5-methyloxazolo[4,5-b]pyridin-2-yl)thio)acetyl)thiophen-2-yl)ethyl)acetamide] | 100 to 500 nM
13 | CCc1nc(SCC(=O)c2ccc(CNC(=O)CO)s2)c2ccccc2n1 [Compound 62, N-((5-(2-((2-ethylquinazolin-4-yl)thio)acetyl)thiophen-2-yl)methyl)-2-hydroxyacetamide] | ≤ 100 nM
14 | O=C(CSc1nc2nc(C(F)(F)F)ccc2o1)c1ccc(CNC(=O)C2(O)CC2)s1 [Compound 45, 1-hydroxy-N-((5-(2-((5-(trifluoromethyl)oxazolo[4,5-b]159yrrolid-2-yl)thio)acetyl)thiophen-2-yl)methyl)cyclopropane-1-carboxamide] | ≤ 100 nM

More lines, now with the values ahead:

Row | IC50 | SMILES
15 | 100 to 500 nM | COc1ccc2nc(C)nc(SCC(=O)c3ccc(CNC(=O)N(C)C)s3)c2c1 [Example 189, 3-((5-(2-((6-methoxy-2-methylquinazolin-4-yl)thio)acetyl)thiophen-1-yl)methyl)-1,1-dimethylurea]
16 | ≤ 100 nM | Cn1cc2c(SCC(=O)c3ccc(CNC(=O)C4CC4)s3)nc(C(F)(F)F)nc2n1 [Example 41, N-((5-(2-((2-methyl-6-(trifluoromethyl)-2H-pyrazolo[3,4-d]pyrimidin-4-yl)thio)acetyl)thiophen-2-yl)methyl)cyclopropanecarboxamide]
17 | ≤ 100 nM | CCOc1ccc2nc(C)nc(SCC(=O)c3ccc(CNC(=O)CO)s3)c2c1 [Compound 144, N-((5-(2-((6-ethoxy-2-methylquinazolin-4-yl)thio)acetyl)thiophen-2-yl)methyl)-2-hydroxyacetamide]
18 | 100 to 500 nM | COc1ccc2nc(C(F)(F)F)nc(SCC(=O)c3ccc(CNC(=O)C(C)(C)O)s3)c2c1 [Compound 134, 2-hydroxy-N-((5-(2-((6-methoxy-2-(trifluoromethyl)quinazolin-4-yl)thio)acetyl)thiophen-2-yl)methyl)-2-methylpropanamide]
19 | 100 to 500 nM | COc1ccc2nc(C)nc(SCC(=O)c3ccc(CN4CCOCC4=O)s3)c2c1 [Example 137, 4-((5-(2-((6-methoxy-2-methylquinazolin-4-yl)thio)acetyl)thiophen-2-yl)methyl)morpholin-3-one]
20 | 1000 to 10000 nM | O=C(CO)NCc1ccc(C(=O)CSc2nc3cc(Cl)ccc3o2)s1 [Example 174, N-((5-(2-((5-chlorobenzo[d]oxazol-2-yl)thio)acetyl)thiophen-2-yl)methyl)-2-hydroxyacetamide]
21 | 100 to 500 nM | COc1ccc2nc(C)nc(SCC(=O)c3ccc(CNC(=O)CN)s3)c2c1 [Compound 177, 2-amino-N-((5-(2-((6-methoxy-2-methylquinazolin-4-yl)thio)acetyl)thiophen-2-yl)methyl)acetamide]
22 | ≤ 100 nM | Cc1nc(SCC(=O)c2ccc(CNC(=O)CO)s2)c2cc(C(F)(F)F)cc(N(C)C)c2n1 [Compound 150, N-((5-(2-((8-(dimethylamino)-2-methyl-6-(trifluoromethyl)quinazolin-4-yl)thio)acetyl)thiophen-2-yl)methyl)-2-hydroxyacetamide]
23 | ≤ 100 nM | CC(NC(=O)CO)c1ccc(C(=O)CSc2nc3cnc(C(F)(F)F)cc3o2)s1 (stereo in doubt) [Example 129, (S)-2-hydroxy-N-(1-(5-(2-((6-(trifluoromethyl)oxazolo[4,5-c]pyridin-2-yl)thio)acetyl)thiophen-2-yl)ethyl)acetamide]
24 | 100 to 500 nM | O=C(CO)NCc1ccc(C(=O)CSc2nccc3ncccc23)s1 [Example 179, N-((5-(2-((1,6-naphthyridin-5-yl)thio)acetyl)thiophen-2-yl)methyl)-2-hydroxyacetamide]
25 | 500 to 1000 nM | COc1ccc2nc(C)nc(SCC(=O)c3ccc(CNC(=O)C4CC4(F)F)s3)c2c1 (stereo not shown) [Example 39, 2,2-difluoro-N-((5-(2-((6-methoxy-2-methylquinazolin-4-yl)thio)acetyl)thiophen-2-yl)methyl)cyclopropane-1-carboxamide]
